Source: ChEMBL document CHEMBL1201862, “PubChem BioAssay data set” (2004)
One block for each molecule: values may come before it. Calls of active or inactive are those of the source.

Legend:
[1] = biological target: Mu-type opioid receptor (Homo sapiens, UniProt P35372); assay: Counterscreen for agonists of heterodimerization of the mu 1 (OPRM1) and delta 1 (OPRD1) opioid receptors: Luminescence-based cell-based high throughput dose response assay to identify agonists of OPRM1 homodimerization.; assay type: functional;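 also: U2OS cells expressing OPRM1 and beta-arrestin as split beta-galactosidase partners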
[2] = biological target: RNA-editing ligase 1, mitochondrial (Trypanosoma brucei brucei, UniProt P86926); assay: TbREL1 ligase inhibitors, dose response, biochemical, fluorescence, Trypanosoma brucei (AID 1117295); assay type: functional
[3] = biological target: Protein disulfide-isomerase A6 (Homo sapiens, UniProt Q15084); assay: inhibitors of ERp5-mediated insulin aggregation, dose response, biochemical, turbidity, absorbance 650 nm, cherry-picked samples (AID 720566)
[4] = biological target: Phospholipase A2 (Homo sapiens, UniProt P04054); assay type: functional;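 also: confirmatory dose-response counterscreen on phospholipase A2, testing hits that came from an ultra-high-throughput screen for ATG4B inhibitors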
[5] = biological target: T1, Tyrosine-protein phosphatase non-receptor type 7 (Homo sapiens, UniProt P35236); assay type: functional
T1 sequence (P35236 whole entry): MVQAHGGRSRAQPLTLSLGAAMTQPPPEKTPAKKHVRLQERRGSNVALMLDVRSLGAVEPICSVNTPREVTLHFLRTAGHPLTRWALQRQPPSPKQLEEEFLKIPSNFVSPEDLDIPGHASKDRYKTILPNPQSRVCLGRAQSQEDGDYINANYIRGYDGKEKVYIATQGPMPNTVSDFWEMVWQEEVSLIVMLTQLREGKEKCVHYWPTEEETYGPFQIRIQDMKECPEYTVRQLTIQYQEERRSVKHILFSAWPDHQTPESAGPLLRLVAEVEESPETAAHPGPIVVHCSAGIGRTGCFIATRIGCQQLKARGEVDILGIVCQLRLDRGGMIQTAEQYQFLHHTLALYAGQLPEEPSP

[6] = biological target: Ras and Rab interactor 1/Tyrosine-protein kinase ABL1 (Homo sapiens, UniProt P00519+Q13671); assay type: functional;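 also: biochemical TR-FRET dose-response test measuring inhibition of binding between Rin1 and Abl proteins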
[7] = biological target: T2, Tyrosine-protein phosphatase non-receptor type 22 (Homo sapiens, UniProt Q9Y2R2); assay type: functional;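 also: confirmatory dose-response retest of primary uHTS hits for inhibition of LYP phosphatase, measured by a fluorescence intensity read-out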
T2 sequence (Q9Y2R2 whole entry): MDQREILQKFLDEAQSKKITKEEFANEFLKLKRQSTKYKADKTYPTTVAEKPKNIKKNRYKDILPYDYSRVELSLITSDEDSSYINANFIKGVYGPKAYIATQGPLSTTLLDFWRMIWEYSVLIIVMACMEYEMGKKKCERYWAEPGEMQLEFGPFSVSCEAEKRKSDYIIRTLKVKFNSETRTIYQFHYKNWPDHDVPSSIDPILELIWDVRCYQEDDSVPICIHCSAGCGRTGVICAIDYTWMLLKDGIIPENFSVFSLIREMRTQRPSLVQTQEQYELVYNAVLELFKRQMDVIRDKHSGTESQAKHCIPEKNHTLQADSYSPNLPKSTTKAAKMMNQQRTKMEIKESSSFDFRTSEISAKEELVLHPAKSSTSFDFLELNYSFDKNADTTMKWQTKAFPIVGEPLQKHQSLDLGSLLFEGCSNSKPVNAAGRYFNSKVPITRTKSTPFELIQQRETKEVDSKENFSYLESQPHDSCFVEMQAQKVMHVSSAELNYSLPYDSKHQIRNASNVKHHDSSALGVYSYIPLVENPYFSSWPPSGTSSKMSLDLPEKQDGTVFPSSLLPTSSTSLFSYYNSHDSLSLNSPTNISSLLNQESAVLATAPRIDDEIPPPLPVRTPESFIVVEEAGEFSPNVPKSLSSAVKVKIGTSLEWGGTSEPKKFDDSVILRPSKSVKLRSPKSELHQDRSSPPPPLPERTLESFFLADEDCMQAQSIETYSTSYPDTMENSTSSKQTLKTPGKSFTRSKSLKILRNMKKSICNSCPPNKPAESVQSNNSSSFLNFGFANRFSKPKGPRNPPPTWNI

[8] = biological target: Serine/threonine-protein kinase TAO1 (Homo sapiens, UniProt Q7L7X3); assay type: functional
[9] = biological target: Casein kinase I isoform gamma-1 (Homo sapiens, UniProt Q9HCP0); assay type: functional;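 also: measured as the CSNK1G1 member of a kinome profiling panel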
Chain of Casein kinase I isoform gamma-1 (Q9HCP0 whole entry, canonical isoform): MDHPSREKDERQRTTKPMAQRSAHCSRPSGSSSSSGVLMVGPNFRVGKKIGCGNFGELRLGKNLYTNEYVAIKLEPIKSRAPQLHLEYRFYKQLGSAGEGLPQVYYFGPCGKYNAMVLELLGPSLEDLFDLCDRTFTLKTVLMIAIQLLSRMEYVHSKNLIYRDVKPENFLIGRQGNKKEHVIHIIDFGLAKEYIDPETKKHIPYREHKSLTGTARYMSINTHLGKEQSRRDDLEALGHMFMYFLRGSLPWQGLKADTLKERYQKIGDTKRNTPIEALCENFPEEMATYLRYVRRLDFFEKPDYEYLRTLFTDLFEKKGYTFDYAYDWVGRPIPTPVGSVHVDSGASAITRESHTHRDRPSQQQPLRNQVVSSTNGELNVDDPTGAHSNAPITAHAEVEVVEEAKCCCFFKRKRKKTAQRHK

[10] = biological target: Non-receptor tyrosine-protein kinase TYK2 (Homo sapiens, UniProt P29597); assay type: functional
[11] = biological target: Aurora kinase B (Homo sapiens, UniProt Q96GD4); assay type: functional
Chain of Aurora kinase B (Q96GD4 whole entry): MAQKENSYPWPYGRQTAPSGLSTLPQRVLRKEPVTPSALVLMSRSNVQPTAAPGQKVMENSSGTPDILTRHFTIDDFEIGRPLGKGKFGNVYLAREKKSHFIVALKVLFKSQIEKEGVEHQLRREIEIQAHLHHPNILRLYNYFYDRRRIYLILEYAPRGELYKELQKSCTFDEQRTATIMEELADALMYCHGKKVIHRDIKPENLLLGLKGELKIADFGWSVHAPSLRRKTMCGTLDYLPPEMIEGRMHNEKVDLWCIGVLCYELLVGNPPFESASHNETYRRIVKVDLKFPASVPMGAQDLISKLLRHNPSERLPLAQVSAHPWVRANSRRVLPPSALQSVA

[12] = biological target: Ribosomal protein S6 kinase beta-1 (Homo sapiens, UniProt P23443); assay type: functional;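 also: measured as one member of a kinome-wide profiling panel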
[13] = biological target: Fibroblast growth factor receptor 3 (Homo sapiens, UniProt P22607); assay type: functional
[14] = biological target: Tyrosine-protein kinase Blk (Homo sapiens, UniProt P51451); assay type: functional;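 also: obtained as one member of a kinome-wide kinase assay panel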
[15] = biological target: Tyrosine-protein kinase JAK2 (Homo sapiens, UniProt O60674); assay type: functional;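 also: JAK2 tested as one member of a kinase panel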
[16] = biological target: Cell division cycle 7-related protein kinase (Homo sapiens, UniProt O00311); assay type: functional;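 also: value obtained from a kinome-wide kinase panel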
Chain of Cell division cycle 7-related protein kinase (O00311 whole entry): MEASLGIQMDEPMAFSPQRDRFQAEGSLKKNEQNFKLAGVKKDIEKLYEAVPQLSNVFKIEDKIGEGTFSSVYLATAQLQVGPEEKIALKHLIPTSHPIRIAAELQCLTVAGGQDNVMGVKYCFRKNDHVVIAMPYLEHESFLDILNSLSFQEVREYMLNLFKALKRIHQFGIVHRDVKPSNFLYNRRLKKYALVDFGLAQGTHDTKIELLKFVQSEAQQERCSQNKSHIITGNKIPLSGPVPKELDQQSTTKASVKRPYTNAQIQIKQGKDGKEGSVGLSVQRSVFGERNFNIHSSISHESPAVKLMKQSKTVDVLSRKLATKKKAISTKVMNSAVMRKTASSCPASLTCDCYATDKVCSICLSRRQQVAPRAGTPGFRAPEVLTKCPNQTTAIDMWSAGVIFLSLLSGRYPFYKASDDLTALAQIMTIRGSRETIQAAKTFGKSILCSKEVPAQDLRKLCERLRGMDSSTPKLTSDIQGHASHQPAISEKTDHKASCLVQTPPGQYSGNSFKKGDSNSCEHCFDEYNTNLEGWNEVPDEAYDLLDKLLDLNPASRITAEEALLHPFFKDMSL

[17] = biological target: Inhibitor of nuclear factor kappa-B kinase subunit beta (Homo sapiens, UniProt O14920); assay type: functional
[18] = biological target: Serine/threonine-protein kinase D2 (Homo sapiens, UniProt Q9BZL6); assay type: functional;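 also: measured against PRKD2 as one member of a kinome-wide kinase profiling panel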
[19] = biological target: cAMP-dependent protein kinase catalytic subunit alpha (Homo sapiens, UniProt P17612); assay type: functional
[20] = biological target: Mitogen-activated protein kinase kinase kinase kinase 2 (Homo sapiens, UniProt Q12851); assay type: functional;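 also: measured as one member of a kinome-wide kinase panel, with MAP4K2 as the panel entry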
[21] = biological target: RAC-gamma serine/threonine-protein kinase (Homo sapiens, UniProt Q9Y243); assay type: functional
Chain of RAC-gamma serine/threonine-protein kinase (Q9Y243 whole entry): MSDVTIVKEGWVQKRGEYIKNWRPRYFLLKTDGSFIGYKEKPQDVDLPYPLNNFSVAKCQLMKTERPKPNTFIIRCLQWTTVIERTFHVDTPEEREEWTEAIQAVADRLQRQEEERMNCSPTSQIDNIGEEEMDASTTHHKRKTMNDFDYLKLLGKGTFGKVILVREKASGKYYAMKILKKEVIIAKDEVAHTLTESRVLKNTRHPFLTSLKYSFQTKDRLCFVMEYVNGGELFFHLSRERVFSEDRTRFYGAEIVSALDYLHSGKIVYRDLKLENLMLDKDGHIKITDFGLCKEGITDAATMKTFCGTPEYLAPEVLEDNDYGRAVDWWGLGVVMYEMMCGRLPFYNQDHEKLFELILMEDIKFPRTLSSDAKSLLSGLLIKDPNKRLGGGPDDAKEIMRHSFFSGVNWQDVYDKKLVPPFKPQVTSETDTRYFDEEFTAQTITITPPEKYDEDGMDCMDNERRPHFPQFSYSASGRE

[22] = biological target: Calcium/calmodulin-dependent protein kinase type 1 (Homo sapiens, UniProt Q14012); assay type: functional
[23] = biological target: Insulin-like growth factor 1 receptor (Homo sapiens, UniProt P08069); assay: Navigating the Kinome. Panel member name: IGF1R; assay type: functional
Chain of Insulin-like growth factor 1 receptor (P08069 31-736 limits assumed): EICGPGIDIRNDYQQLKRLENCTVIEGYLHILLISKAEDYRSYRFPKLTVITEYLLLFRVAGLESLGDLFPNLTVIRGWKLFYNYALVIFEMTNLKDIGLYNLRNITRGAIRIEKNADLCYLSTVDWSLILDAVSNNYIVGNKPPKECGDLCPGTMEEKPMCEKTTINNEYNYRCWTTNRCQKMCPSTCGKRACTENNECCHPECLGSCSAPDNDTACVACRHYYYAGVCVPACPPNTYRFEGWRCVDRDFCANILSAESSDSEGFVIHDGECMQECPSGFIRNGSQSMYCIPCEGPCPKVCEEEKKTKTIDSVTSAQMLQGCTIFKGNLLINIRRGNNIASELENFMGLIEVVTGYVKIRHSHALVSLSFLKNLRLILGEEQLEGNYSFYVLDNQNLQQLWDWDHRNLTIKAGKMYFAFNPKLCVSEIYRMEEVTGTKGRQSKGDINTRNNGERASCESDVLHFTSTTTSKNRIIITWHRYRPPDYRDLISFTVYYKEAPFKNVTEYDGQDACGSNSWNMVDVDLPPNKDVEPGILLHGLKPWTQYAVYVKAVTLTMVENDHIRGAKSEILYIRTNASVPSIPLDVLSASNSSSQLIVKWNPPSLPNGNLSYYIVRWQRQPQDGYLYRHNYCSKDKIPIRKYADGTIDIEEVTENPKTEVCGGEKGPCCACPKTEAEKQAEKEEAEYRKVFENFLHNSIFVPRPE
Chain of Insulin-like growth factor 1 receptor (P08069 741-1367 limits assumed): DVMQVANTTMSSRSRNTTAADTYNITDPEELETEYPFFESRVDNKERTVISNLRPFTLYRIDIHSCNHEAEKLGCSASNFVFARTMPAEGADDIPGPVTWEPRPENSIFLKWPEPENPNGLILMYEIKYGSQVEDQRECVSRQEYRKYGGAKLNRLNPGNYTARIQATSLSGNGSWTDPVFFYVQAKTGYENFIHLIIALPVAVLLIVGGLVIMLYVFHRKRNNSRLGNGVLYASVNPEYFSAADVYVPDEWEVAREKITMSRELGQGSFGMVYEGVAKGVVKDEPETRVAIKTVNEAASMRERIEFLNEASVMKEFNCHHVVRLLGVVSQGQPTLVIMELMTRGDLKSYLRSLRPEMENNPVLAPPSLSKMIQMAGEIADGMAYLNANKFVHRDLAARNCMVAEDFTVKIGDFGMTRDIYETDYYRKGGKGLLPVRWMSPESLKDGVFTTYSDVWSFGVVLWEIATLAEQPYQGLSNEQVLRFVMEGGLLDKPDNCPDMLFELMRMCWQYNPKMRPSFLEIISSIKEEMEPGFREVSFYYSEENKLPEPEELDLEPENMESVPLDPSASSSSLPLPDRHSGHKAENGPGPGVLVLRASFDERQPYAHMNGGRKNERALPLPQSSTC

[24] = biological target: PAS domain-containing serine/threonine-protein kinase (Homo sapiens, UniProt Q96RG2); assay type: functional
Chain of PAS domain-containing serine/threonine-protein kinase (Q96RG2 whole entry, the tested form may be a part): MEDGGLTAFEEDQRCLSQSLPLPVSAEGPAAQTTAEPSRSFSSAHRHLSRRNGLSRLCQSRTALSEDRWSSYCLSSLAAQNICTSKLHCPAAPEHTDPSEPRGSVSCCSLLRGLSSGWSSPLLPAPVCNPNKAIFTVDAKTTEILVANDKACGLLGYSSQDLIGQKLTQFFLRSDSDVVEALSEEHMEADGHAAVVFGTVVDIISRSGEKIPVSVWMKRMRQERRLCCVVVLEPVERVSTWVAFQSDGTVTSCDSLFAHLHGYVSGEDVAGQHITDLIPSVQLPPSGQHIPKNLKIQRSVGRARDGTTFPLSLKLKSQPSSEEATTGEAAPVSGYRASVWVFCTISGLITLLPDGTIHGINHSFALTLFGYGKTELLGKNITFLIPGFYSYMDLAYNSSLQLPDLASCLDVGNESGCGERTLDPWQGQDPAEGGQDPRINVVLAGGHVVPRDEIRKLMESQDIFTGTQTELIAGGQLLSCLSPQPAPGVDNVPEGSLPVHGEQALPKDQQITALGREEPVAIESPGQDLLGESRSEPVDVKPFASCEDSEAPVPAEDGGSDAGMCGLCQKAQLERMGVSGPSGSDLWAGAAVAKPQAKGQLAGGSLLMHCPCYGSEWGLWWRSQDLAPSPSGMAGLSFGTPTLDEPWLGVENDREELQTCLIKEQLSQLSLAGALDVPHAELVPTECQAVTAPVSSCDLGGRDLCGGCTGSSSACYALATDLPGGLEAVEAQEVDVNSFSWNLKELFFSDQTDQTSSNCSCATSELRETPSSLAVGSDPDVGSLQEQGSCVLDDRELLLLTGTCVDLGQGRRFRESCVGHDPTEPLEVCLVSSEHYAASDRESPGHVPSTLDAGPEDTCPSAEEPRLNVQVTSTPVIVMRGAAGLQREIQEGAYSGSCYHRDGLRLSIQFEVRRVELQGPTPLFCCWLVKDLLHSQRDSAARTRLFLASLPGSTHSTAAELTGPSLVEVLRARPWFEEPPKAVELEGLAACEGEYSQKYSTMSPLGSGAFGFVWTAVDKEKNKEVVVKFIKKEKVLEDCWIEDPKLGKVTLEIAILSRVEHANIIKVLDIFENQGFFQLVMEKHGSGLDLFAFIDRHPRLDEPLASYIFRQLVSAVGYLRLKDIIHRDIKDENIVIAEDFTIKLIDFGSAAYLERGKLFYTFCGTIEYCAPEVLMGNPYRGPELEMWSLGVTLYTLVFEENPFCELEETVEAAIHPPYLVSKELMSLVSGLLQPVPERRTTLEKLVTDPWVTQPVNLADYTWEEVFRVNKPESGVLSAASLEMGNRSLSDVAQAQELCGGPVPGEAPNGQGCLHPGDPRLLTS

[25] = biological target: cGMP-dependent protein kinase 1 (Homo sapiens, UniProt Q13976); assay type: functional;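 also: value from a kinome panel screen with PRKG1 as the panel member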
[26] = biological target: 5'-AMP-activated protein kinase catalytic subunit alpha-1 (Homo sapiens, UniProt Q13131); assay type: functional
Chain of 5'-AMP-activated protein kinase catalytic subunit alpha-1 (Q13131 whole entry): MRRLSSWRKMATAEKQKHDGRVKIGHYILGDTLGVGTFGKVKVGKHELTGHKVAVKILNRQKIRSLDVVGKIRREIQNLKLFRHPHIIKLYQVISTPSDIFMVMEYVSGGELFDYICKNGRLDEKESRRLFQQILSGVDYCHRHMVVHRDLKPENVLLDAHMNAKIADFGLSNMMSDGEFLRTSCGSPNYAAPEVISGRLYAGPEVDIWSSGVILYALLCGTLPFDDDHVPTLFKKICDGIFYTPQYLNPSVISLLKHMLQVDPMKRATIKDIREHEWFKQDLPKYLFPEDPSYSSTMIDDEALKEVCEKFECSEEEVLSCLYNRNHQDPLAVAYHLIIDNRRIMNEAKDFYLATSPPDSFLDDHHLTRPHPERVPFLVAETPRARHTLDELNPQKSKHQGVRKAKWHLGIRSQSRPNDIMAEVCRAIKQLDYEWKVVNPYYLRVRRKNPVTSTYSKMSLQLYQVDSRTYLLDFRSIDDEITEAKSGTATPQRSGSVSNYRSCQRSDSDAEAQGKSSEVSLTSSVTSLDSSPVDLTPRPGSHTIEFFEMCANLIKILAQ

[27] = biological target: Tyrosine-protein kinase ABL1 (Homo sapiens, UniProt P00519); assay type: functional
[28] = biological target: Inhibitor of nuclear factor kappa-B kinase subunit alpha (Homo sapiens, UniProt O15111); assay type: functional

Structure (SMILES): CCCc1nc2c(=O)n(C)c(=O)nc-2n(C)n1
EC50 [1]: > 92.5 µM (inactive)
IC50 [2]: 494 nM (active)
AC50 [3]: 513 nM (active)
IC50 [4]: > 80 µM (inactive)
IC50 [5]: < 1.24 µM (active)
IC50 [6]: 527 nM (active)
IC50 [7]: 1.6 µM (active)

Ki [8]: > 10 µM (inactive)
Ki [9]: > 6.31 µM (inactive)
Ki [10]: > 2 µM (inactive)
Ki [11]: > 6.31 µM (inactive)
Ki [12]: > 6.31 µM (inactive)
Ki [13]: > 2 µM (inactive)
Ki [14]: > 1.58 µM (inactive)
Ki [15]: 1.26 µM (active)
Ki [16]: > 1.26 µM (inactive)
Ki [17]: > 3.16 µM (inactive)
Ki [18]: > 10 µM (inactive)
Ki [19]: > 7.94 µM (inactive)
Ki [20]: > 6.31 µM (inactive)
Ki [21]: > 10 µM (inactive)
Ki [22]: > 7.94 µM (inactive)
Ki [23]: > 1 µM (inactive)
Ki [24]: > 1.58 µM (inactive)
Ki [25]: 316 nM (active)
Ki [26]: > 5.01 µM (inactive)
Ki [27]: > 631 nM (inactive)
Ki [28]: > 3.98 µM (inactive)
Structure (SMILES): COc1cc2ncn(-c3cc(OCc4ccccc4C(F)(F)F)c(C(N)=O)s3)c2cc1OC [GW843682X]
